Laboratory results: patent publication US20220378907A1, “METHODS FOR TREATING DISEASES” (CHILDREN'S HOSPITAL MEDICAL CENTER, priority 2019, published 2022)

Tests used:
Format in all cases: cell-based, mouse
[1] = tested on: IL-1β production by BMDCs co-cultured with TH0 cells; assay: Co-culture of BMDCs and effector CD4+ T cells (CD3 Ab), secreted IL-1β by ELISA or immunoblot; conditions: WT BMDCs + WT TH0 cells, IETD 10 μM, 18 h
Protocol: Cell culture treated plates were coated with αCD3 (5 μg mL^−1) and αCD28 (5 μg mL^−1) for 3-4 h at 37° C. CD4^+CD62L^hi naïve CD4^+ T cells were isolated from splenocytes using a Mojosort naïve CD4 T cell isolation kit according to manufacturer's protocol. Purified naïve T cells were plated in antibody-coated plates with appropriate polarizing conditions for 5 days. T cell were cultured in complete RPMI supplemented with 10% FCS. Cytokine cocktails for in vitro polarization: Thl — IL-12 (10 ng mL^−1, peprotech), IL-2 (50 U mL^−1, peprotech), αIL-4 (10 μg mL^−1, Biolegend); Th17-IL-6 (20 ng mL^−1, peprotech), hTGFβ (5 ng mL^−1, peprotech), αIL-4 (10 μg mL^−1, Biolegend), αIFNγ (10 μg mL^−1, Biolegend), IL-23 (20 ng mL^−1, Biolegend) and IL-1β (20 ng mL^−1, peprotech), Th2− IL-4 (4 ng mL^−1, peprotech), IL-2 (50 U mL^−1, Biolegend), and αIFNγ (10 μg mL^−1, Biolegend), Th0− IL-2 (50 U mL^−1). For co-culture experiments T cells were rested in 10% RPMI supplemented with IL-2 (10 U mL^−1) for 36 hrs before co-culture.
Mouse progenitors were isolated from bone marrow (femurs and tibias). […]
Cells were lysed in 1× RIPA Buffer and protein was quantified using Pierce™ BCA Protein Assay Kit. […] Western blot was develop using SuperSignal™ West Pico PLUS Chemiluminescent Substrate (Thermo Fisher) and ECL signal was recorded on X-Ray Films using a developer (Kodak).

pro-IL-1β in BMDCs = assay: Co-culture of BMDCs and effector CD4+ T cells, pro-IL-1β by immunoblot or flow cytometry; conditions: WT BMDCs + WT TH0 cells, CD3 Ab, IETD 10 μM, 18 h
Protocol: 1 million DCs were cultured with 4 million T cells in 12 well plate. DC-T cell interaction was triggered by adding either αCD3ε (αCD3, 200 ng mL^−1) or OVA323-339 as described in the legends. In experiments measuring secreted IL-1β, IL-1R antagonist (50 ng mL^−1) was added 1 hr prior to DC stimulation to block IL-1β consumption. Co-cultures were also pretreated with neutralizing antibodies and inhibitor wherever described. Co-culture experiments were performed in complete RPMI supplemented with 10% FCS. For Western blot analysis of the culture supernatant cells were cultured in 1% FCS containing complete RPMI.
Cells were lysed in 1× RIPA Buffer and protein was quantified using Pierce™ BCA Protein Assay Kit. Cell lysates where boiled in 1× Laemmli buffer at 95° C. for 10 mins. Cell lysates were separated by SDS-PAGE and transferred onto PVDF membranes. Blots were incubated with anti-IL1β [1:1000] (R&D AF-401-SP), anti-caspase8 [1:1000] […] Western blot was develop using SuperSignal™ West Pico PLUS Chemiluminescent Substrate (Thermo Fisher) and ECL signal was recorded on X-Ray Films using a developer (Kodak).
Cells were stained with relevant antibodies for 30 min on ice and washed. […] The stained cells were analyzed with BDLSRII or Novocyte (ACEA biosciences). For cytokine receptor staining, control refers to fluorescence minus one control. Data were analyzed with FlowJo 10 Software.

WT BMDCs = assay: Stimulation of WT BMDCs with recombinant TNF, intracellular pro-IL-1β by flow cytometry; conditions: recombinant TNFα 20 ng/mL, 6 h
Protocol: Mouse progenitors were isolated from bone marrow (femurs and tibias). Following RBC lysis, cells were plated at 0.75×10^6 mL^−1 in BMDC media (5% FCS containing complete RPMI+1% rGMCSF (Biolegend, 100 ng mL^−1). Media was replaced on day 2 and day 4 and cells were harvested for experiments on day 5 by gently flushing each well. For sorting of BMDC subpopulations, total BMDC cells were stained with fluorescent antibodies and FACS sorted as shown (FIG. 5g) For retroviral transduction, following RBC lysis cells were plated at 10×10^6 mL^−1 in 2 mL of retroviral supernatant containing […] polybrene. Cells were spinfected at 2500 rpm, 32° C., for 90 minutes, then 3 mL of BMDC media was added to each well and cells were incubated overnight. The next morning, ˜70% of the media was removed from the wells and spinfection was repeated with fresh retroviral supernatant. On day 5 cells were harvested for experiments.
Cells were stained with relevant antibodies for 30 min on ice and washed. For intracellular staining, Foxp3 staining buffer set (eBioscience; 00-5523-00) was used according to manufacturer's protocol. The stained cells were analyzed with BDLSRII or Novocyte (ACEA biosciences). For cytokine receptor staining, control refers to fluorescence minus one control. Data were analyzed with FlowJo 10 Software.

| Molecule | mature IL-1β (p17) in the supernatant (immunoblot, FIG. 4d) [1] | production of pro-IL-1β in BMDCs (immunoblot, FIG. 4d) (pro-IL-1β in BMDCs) | synthesis of pro-IL-1β in wild-type BMDCs (FIG. 2k) (WT BMDCs) |
| --- | --- | --- | --- |
| IETD | loss of mature IL-1β | did not affect | – |
| recombinant TNF: rTNFα (Peprotech; 315-01Am, 20 ng/mL) (protein) LRSSSQNSSDKPVAHVVANHQVEEQLEWLSQRANALLANGMDLKDNQLVVPADGLYLVYSQVLFKGQGCPDYVLLTHTVSRFAISYQEKVNLLSAVKSPCPKDTPEGAELKPWYEPIYLGGVFQLEKGDQLSAEVNLPKYLDFAESGQVYFGVIAL | – | – | drove the synthesis |
